Measurements: patent US20040029926A1 (priority 2000, published 2004)

Assay: Solubility in water, visual, confirmed by HPLC assay of a saturated solution
Assay type: physicochemical
Conditions: thermodynamic from solid
Procedure: Solubility of the Nitrate
The visual solubility was confirmed by an HPLC assay of a saturated solution. Solubility: 6 mg/ml.

## CN(CCOc1ccc(CC2SC(=O)NC2=O)cc1)c1ccccn1.O=[N+]([O-])O (stereo not shown) [Nitrate, 5-[4-[2-(N-methyl-N-(2-pyridyl)amino)ethoxy]benzyl]thiazolidine-2,4-dione nitrate]
  solubility: 6 mg/mL
